pKi: −log10 of the molar value.
Biological target: T1, human NEP (Homo sapiens, UniProt P08473)
T1 construct: purchased R&D Systems, Minneapolis, Minn; 1182-ZN
Assay: In vitro enzyme inhibition assay, inhibitor potency at human NEP (Assay 1)
Format: biochemical
Conditions: recombinant human NEP; fluorogenic peptide substrate 10 μM; 37° C.; values given as ranges
Method: The inhibitory activities of compounds at human and rat neprilysin (EC 3.4.24.11; NEP) and human angiotensin converting enzyme (ACE) were determined using in vitro assays as described below.
Recombinant human NEP and recombinant human ACE were obtained commercially (R&D Systems, Minneapolis, Minn., catalog numbers 1182-ZN and 929-ZN, respectively). The fluorogenic peptide substrate Mca-D-Arg-Arg-Leu-Dap-(Dnp)-OH (Medeiros et al. (1997) Braz. J. Med. Biol. Res. 30:1157-62; Anaspec, San Jose, Calif.) and Abz-Phe-Arg-Lys(Dnp)-Pro-OH (Araujo et al. (2000) Biochemistry 39:8519-8525; Bachem, Torrance, Calif.) were used in the NEP and ACE assays respectively.
The assays were performed in 384-well white opaque plates at 37° C. using the fluorogenic peptide substrates at a concentration of 10 μM in Assay Buffer (NEP: 50 mM HEPES, pH 7.5, 100 mM NaCl, 0.01% polyethylene glycol sorbitan monolaurate (Tween-20), 10 μM ZnSO4; ACE: 50 mM HEPES, pH 7.5, 100 mM NaCl, 0.01% Tween-20, 1 μM ZnSO4).
Test compounds were assayed over the range of concentrations from […] to 20 μM. Test compounds were added to the enzymes and incubated for 30 minute at 37° C. prior to initiating the reaction by the addition of substrate. Reactions were terminated after 20 minutes of incubation at 37° C. by the addition of glacial acetic acid to a final concentration of 3.6% (v/v).
Plates were read on a fluorometer with excitation and emission wavelengths set to 320 nm and 405 nm, respectively. Inhibition constants were obtained by nonlinear regression of the data using the equation (GraphPad Software, Inc., San Diego, Calif.): ν=ν0/[1+(I/K′)] where ν is the reaction rate, ν0 is the uninhibited reaction rate, I is the inhibitor concentration and K′ is the apparent inhibition constant.
Compounds of the invention were tested in this assay and found to have pKi values at human NEP as follows.

T1 sequence (P08473 52-750 limits assumed): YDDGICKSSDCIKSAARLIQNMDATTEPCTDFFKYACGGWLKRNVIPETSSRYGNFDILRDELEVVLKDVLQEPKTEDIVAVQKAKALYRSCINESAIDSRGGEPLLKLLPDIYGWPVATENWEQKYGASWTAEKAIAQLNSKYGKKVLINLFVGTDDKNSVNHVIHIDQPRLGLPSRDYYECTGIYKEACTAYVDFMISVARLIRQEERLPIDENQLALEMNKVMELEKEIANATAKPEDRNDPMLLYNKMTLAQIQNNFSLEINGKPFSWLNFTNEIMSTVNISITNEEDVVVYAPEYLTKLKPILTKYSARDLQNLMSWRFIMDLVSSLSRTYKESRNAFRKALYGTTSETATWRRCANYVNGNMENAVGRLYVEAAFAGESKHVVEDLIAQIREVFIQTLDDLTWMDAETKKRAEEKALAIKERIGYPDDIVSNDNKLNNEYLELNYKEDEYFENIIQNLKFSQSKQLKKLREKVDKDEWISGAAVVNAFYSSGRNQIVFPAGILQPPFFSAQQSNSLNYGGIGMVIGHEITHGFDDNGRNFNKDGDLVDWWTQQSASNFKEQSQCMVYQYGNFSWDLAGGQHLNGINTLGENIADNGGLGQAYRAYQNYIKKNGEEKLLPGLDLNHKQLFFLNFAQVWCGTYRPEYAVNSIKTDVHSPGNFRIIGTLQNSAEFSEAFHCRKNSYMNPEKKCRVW

Compound	pKi
CNNC(=O)C(=O)N[C@H](Cc1ccc(-c2cccc(Cl)c2)cc1)C[C@@H](O)C(=O)O [Example 6-1, (2R,4R)-5-(3′-Chlorobiphenyl-4-yl)-2-hydroxy-4-[(N′-methylhydrazinooxalyl)-amino]pentanoic acid]	7.50 to 8.00
O=C(NNc1ccncc1)C(=O)N[C@H](Cc1ccc(-c2cccc(Cl)c2)cc1)C[C@@H](O)C(=O)O [Example 6-3, (2R,4R)-5-(3′-Chlorobiphenyl-4-yl)-2-hydroxy-4-[(N′-pyridin-4-yl-hydrazino-oxalyl)-amino]pentanoic acid]	8.00 to 9.00
O=C(NNc1cccnc1)C(=O)N[C@H](Cc1ccc(-c2cccc(Cl)c2)cc1)C[C@@H](O)C(=O)O [Example 6-4, (2R,4R)-5-(3′-Chlorobiphenyl-4-yl)-2-hydroxy-4-[(N′-pyridin-3-yl-hydrazino-oxalyl)-amino]pentanoic acid]	8.00 to 9.00
O=C(NNC1=NCCN1)C(=O)N[C@H](Cc1ccc(-c2cccc(Cl)c2)cc1)C[C@@H](O)C(=O)O [Example 6-6, (2R,4R)-5-(3′-Chlorobiphenyl-4-yl)-4-{[N′-(4,5-dihydro-1H-imidazol-2-yl)-hydrazinooxalyl]-amino}-2-hydroxypentanoic acid]	7.50 to 8.00
O=C(NNc1ccccc1F)C(=O)N[C@H](Cc1ccc(-c2cccc(Cl)c2)cc1)C[C@@H](O)C(=O)O [Example 6-8, (2R,4R)-5-(3′-Chlorobiphenyl-4-yl)-4-{[N′-(2-fluoro-phenyl)-hydrazinooxalyl]-amino}-2-hydroxypentanoic acid]	8.00 to 9.00
Cc1ccccc1NNC(=O)C(=O)N[C@H](Cc1ccc(-c2cccc(Cl)c2)cc1)C[C@@H](O)C(=O)O [Example 6-10, (2R,4R)-5-(3′-Chlorobiphenyl-4-yl)-2-hydroxy-4-[(N′-o-tolyl-hydrazinooxalyl)-amino]-pentanoic acid]	8.00 to 9.00
O=C(NNc1ccc(F)cc1)C(=O)N[C@H](Cc1ccc(-c2cccc(Cl)c2)cc1)C[C@@H](O)C(=O)O [Example 6-12, (2R,4R)-5-(3′-Chlorobiphenyl-4-yl)-4-{[N′-(4-fluoro-phenyl)-hydrazinooxalyl]-amino}-2-hydroxypentanoic acid]	8.00 to 9.00
O=C(NNc1ccc(Cl)cc1)C(=O)N[C@H](Cc1ccc(-c2cccc(Cl)c2)cc1)C[C@@H](O)C(=O)O [Example 6-13, (2R,4R)-5-(3′-Chlorobiphenyl-4-yl)-4-{[N′-(4-chloro-phenyl)-hydrazinooxalyl]-amino}-2-hydroxypentanoic acid]	8.00 to 9.00
O=C(NNC(=O)c1ccccc1O)C(=O)N[C@H](Cc1ccc(-c2cccc(Cl)c2)cc1)C[C@@H](O)C(=O)O [Example 7, (2R,4R)-5-(3′-Chlorobiphenyl-4-yl)-2-hydroxy-4-{2-[N′-(2-hydroxybenzoyl)hydrazino]-2-oxo-acetylamino}pentanoic Acid]	≥ 9.00
O=C(NNC(=O)C(=O)N[C@H](Cc1ccc(-c2cccc(Cl)c2)cc1)C[C@@H](O)C(=O)O)OCc1ccccc1 [Example 8-1, (2R,4R)-4-[2-(N′-Benzyloxycarbonyl-hydrazino)-2-oxo-acetylamino]-5-(3′-chloro-biphenyl-4-yl)-2-hydroxypentanoic acid]	7.50 to 8.00
O=C(NNC(=O)c1ccc(Cl)nc1)C(=O)N[C@H](Cc1ccc(-c2cccc(Cl)c2)cc1)C[C@@H](O)C(=O)O [Example 8-2, (2R,4R)-5-(3′-Chlorobiphenyl-4-yl)-4-{2-[N′-(6-chloro-pyridine-3-carbonyl)-hydrazino]-2-oxo-acetylamino}-2-hydroxypentanoic acid]	8.00 to 9.00
O=C(NNC(=O)c1cccnc1)C(=O)N[C@H](Cc1ccc(-c2cccc(Cl)c2)cc1)C[C@@H](O)C(=O)O [Example 8-3, (2R,4R)-5-(3′-Chlorobiphenyl-4-yl)-2-hydroxy-4-{2-oxo-2-[N′-(pyridine-3-carbonyl)-hydrazino]acetylamino}pentanoic acid]	8.00 to 9.00
O=C(NNC(=O)c1ccco1)C(=O)N[C@H](Cc1ccc(-c2cccc(Cl)c2)cc1)C[C@@H](O)C(=O)O [Example 8-5, (2R,4R)-5-(3′-Chlorobiphenyl-4-yl)-4-{2-[N′-(furan-2-carbonyl)-hydrazino]-2-oxo-acetylamino}-2-hydroxypentanoic acid]	8.00 to 9.00

More lines, now with the values ahead:

pKi	Compound
≥ 9.00	O=C(NNc1ccc([N+](=O)[O-])cc1[N+](=O)[O-])C(=O)N[C@H](Cc1ccc(-c2cccc(Cl)c2)cc1)C[C@@H](O)C(=O)O [Example 5, (2R,4R)-5-(3′-Chlorobiphenyl-4-yl)-4-{[N′-(2,4-dinitrophenyl)-hydrazinooxalyl]-amino}-2-hydroxypentanoic Acid]
7.50 to 8.00	CC(C)CNNC(=O)C(=O)N[C@H](Cc1ccc(-c2cccc(Cl)c2)cc1)C[C@@H](O)C(=O)O [Example 6-2, (2R,4R)-5-(3′-Chlorobiphenyl-4-yl)-2-hydroxy-4-[(N′-isobutylhydrazinooxalyl)-amino]pentanoic acid]
8.00 to 9.00	O=C(NNc1cc(O)ncn1)C(=O)N[C@H](Cc1ccc(-c2cccc(Cl)c2)cc1)C[C@@H](O)C(=O)O [Example 6-5, (2R,4R)-5-(3′-Chlorobiphenyl-4-yl)-2-hydroxy-4-{[N′-(6-hydroxy-pyrimidin-4-yl)-hydrazinooxalyl]amino}-pentanoic acid]
8.00 to 9.00	O=C(NNc1ccccc1Cl)C(=O)N[C@H](Cc1ccc(-c2cccc(Cl)c2)cc1)C[C@@H](O)C(=O)O [Example 6-7, (2R,4R)-5-(3′-Chlorobiphenyl-4-yl)-4-{[N′-(2-chloro-phenyl)-hydrazinooxalyl]-amino}-2-hydroxypentanoic acid]
8.00 to 9.00	O=C(NNc1cccc(Cl)c1)C(=O)N[C@H](Cc1ccc(-c2cccc(Cl)c2)cc1)C[C@@H](O)C(=O)O [Example 6-9, (2R,4R)-5-(3′-Chlorobiphenyl-4-yl)-4-{[N′-(3-chloro-phenyl)-hydrazinooxalyl]-amino}-2-hydroxypentanoic acid]
8.00 to 9.00	Cc1ccc(NNC(=O)C(=O)N[C@H](Cc2ccc(-c3cccc(Cl)c3)cc2)C[C@@H](O)C(=O)O)cc1 [Example 6-11, (2R,4R)-5-(3′-Chlorobiphenyl-4-yl)-2-hydroxy-4-[(N′-p-tolyl-hydrazinooxalyl)-amino]-pentanoic acid]
8.00 to 9.00	O=C(NNc1ccc(Br)cc1)C(=O)N[C@H](Cc1ccc(-c2cccc(Cl)c2)cc1)C[C@@H](O)C(=O)O [Example 6-14, (2R,4R)-4-{[N′-(4-Bromophenyl)-hydrazinooxalyl]-amino}-5-(3′-chlorobiphenyl-4-yl)-2-hydroxypentanoic acid]
8.00 to 9.00	COc1ccc(NNC(=O)C(=O)N[C@H](Cc2ccc(-c3cccc(Cl)c3)cc2)C[C@@H](O)C(=O)O)cc1 [Example 6-15, (2R,4R)-5-(3′-Chlorobiphenyl-4-yl)-2-hydroxy-4-{[N′-(4-methoxyphenyl)-hydrazinooxalyl]amino}pentanoic acid]
8.00 to 9.00	Cc1cccc(NNC(=O)C(=O)N[C@H](Cc2ccc(-c3cccc(Cl)c3)cc2)C[C@@H](O)C(=O)O)c1 [Example 6-16, (2R,4R)-5-(3′-Chlorobiphenyl-4-yl)-2-hydroxy-4-[(N′-m-tolylhydrazinooxalyl)-amino]pentanoic acid]
8.00 to 9.00	O=C(NNc1ccccc1)C(=O)N[C@H](Cc1ccc(-c2cccc(Cl)c2)cc1)C[C@@H](O)C(=O)O [Example 6-17, (2R,4R)-5-(3′-Chlorobiphenyl-4-yl)-2-hydroxy-4-[(N′-phenylhydrazinooxalyl)-amino]pentanoic acid]
8.00 to 9.00	O=C(NNC(=O)c1ccncc1)C(=O)N[C@H](Cc1ccc(-c2cccc(Cl)c2)cc1)C[C@@H](O)C(=O)O [Example 8-4, (2R,4R)-5-(3′-Chlorobiphenyl-4-yl)-2-hydroxy-4-{2-oxo-2-[N′-(pyridine-4-carbonyl)-hydrazino]acetylamino}pentanoic acid]
8.00 to 9.00	O=C(NNC(=O)c1ccccc1[N+](=O)[O-])C(=O)N[C@H](Cc1ccc(-c2cccc(Cl)c2)cc1)C[C@@H](O)C(=O)O [Example 8-6, (2R,4R)-5-(3′-Chlorobiphenyl-4-yl)-2-hydroxy-4-{2-[N′-(2-nitro-benzoyl)-hydrazino]-2-oxo-acetylamino}pentanoic acid]
8.00 to 9.00	O=C(N[C@H](Cc1ccc(-c2cccc(Cl)c2)cc1)C[C@@H](O)C(=O)O)C1CCCCO1 (stereo partly drawn) [Example 9, (2R,4R)-5-(3′-Chlorobiphenyl-4-yl)-2-hydroxy-4-[(tetrahydropyran-2-carbonyl)amino]pentanoic Acid]
8.00 to 9.00	O=C(CO)N[C@H](Cc1ccc(-c2cccc(Cl)c2)cc1)C[C@@H](O)C(=O)O [Example 10-1, (2R,4R)-5-(3′-Chlorobiphenyl-4-yl)-2-hydroxy-4-(2-hydroxyacetylamino)-pentanoic acid]
8.00 to 9.00	COCC(=O)N[C@H](Cc1ccc(-c2cccc(Cl)c2)cc1)C[C@@H](O)C(=O)O [Example 10-2, (2R,4R)-5-(3′-Chlorobiphenyl-4-yl)-2-hydroxy-4-(2-methoxyacetylamino)-pentanoic acid]
